Assays:
Type in all cases: in vivo
[1] = system: barnyardgrass (Echinochloa crus-galli); experiment: Test A preemergence soil spray, visual injury rating 0-100; conditions: 10 days
Summary of the method: (§1)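 Directed preemergence spray onto seeded soil or postemergence spray onto 2-10 cm plants (loam plus sand); compound carried in surfactant-containing non-phytotoxic solvent. Injury rated by eye after 10 d greenhouse growth; 0 = no effect, 100 = complete control.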

[2] = system: blackgrass (Alopecurus myosuroides); experiment: as above; conditions: 10 days
Summary of the method: as §1

corn (Zea mays) [3] = experiment: as above; conditions: 10 days
Summary of the method: as §1

[4] = system: green foxtail (Setaria viridis); experiment: as above; conditions: 10 days
Summary of the method: as §1

kochia (Bassia scoparia) [5] = experiment: as above; conditions: 10 days
Summary of the method: as §1

[6] = system: oat, wild (wild oat, Avena fatua); experiment: as above; conditions: 10 days
Summary of the method: as §1

[7] = system: palmer (palmer amaranth, palmer pigweed, Amaranthus palmeri); experiment: as above; conditions: 10 days
Summary of the method: as §1

[8] = system: ragweed (common ragweed, Ambrosia artemisiifolia); experiment: as above; conditions: 10 days
Summary of the method: as §1

[9] = system: ryegrass, Italian (italian ryegrass, Lolium multiflorum); experiment: as above; conditions: 10 days
Summary of the method: as §1

soybean (Glycine max) [10] = experiment: as above; conditions: 10 days
Summary of the method: as §1

[11] = system: wheat (Triticum aestivum); experiment: as above; conditions: 10 days
Summary of the method: as §1

[12] = system: barnyardgrass (Echinochloa crus-galli); experiment: Test A postemergence application, visual injury rating 0-100
Summary of the method: as §1

[13] = system: blackgrass (Alopecurus myosuroides); experiment: as above
Summary of the method: as §1

corn (Zea mays) [14] = experiment: as above
Summary of the method: as §1

[15] = system: galium (catchweed bedstraw, Galium aparine); experiment: as above
Summary of the method: as §1

[16] = system: green foxtail (Setaria viridis); experiment: as above
Summary of the method: as §1

[17] = system: horseweed (Erigeron canadensis); experiment: as above
Summary of the method: as §1

kochia (Bassia scoparia) [18] = experiment: as above
Summary of the method: as §1

[19] = system: oat, wild (wild oat, Avena fatua); experiment: as above
Summary of the method: as §1

[20] = system: palmer (palmer amaranth, palmer pigweed, Amaranthus palmeri); experiment: as above
Summary of the method: as §1

[21] = system: ragweed (common ragweed, Ambrosia artemisiifolia); experiment: as above
Summary of the method: as §1

[22] = system: ryegrass, Italian (italian ryegrass, Lolium multiflorum); experiment: as above
Summary of the method: as §1

soybean (Glycine max) [23] = experiment: as above
Summary of the method: as §1

[24] = system: wheat (Triticum aestivum); experiment: as above
Summary of the method: as §1

[25] = system: barnyardgrass (Echinochloa crusgalli); experiment: Test B flooded paddy test, visual plant response rating 0-100; conditions: 250 g ai/ha, Flood, applied to paddy water, evaluated after 13 days
Summary of the method: (§2)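 Compounds applied to standing paddy water (3 cm above soil, maintained for the test duration) on 2-leaf-stage plants; visual rating vs controls at 13 days, greenhouse.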

[26] = system: ducksalad (Heteranthera limosa); experiment: as above; conditions: 250 g ai/ha, Flood, applied to paddy water, evaluated after 13 days
Summary of the method: as §2

rice (Oryza sativa) = experiment: as above; conditions: 250 g ai/ha, Flood, applied to paddy water, evaluated after 13 days
Summary of the method: as §2

[27] = system: sedge, umbrella (small-flower umbrella sedge, Cyperus difformis); experiment: as above; conditions: 250 g ai/ha, Flood, applied to paddy water, evaluated after 13 days
Summary of the method: as §2

[28] = 62 g ai/ha, 0 = no effect, 100 = complete control
[29] = 62 g ai/ha, postemergence, 10 days, 0 = no effect, 100 = complete control
[30] = Postemergence, 16 g ai/ha, greenhouse 10 days, 0 no effect, 100 complete control

CC(C)COC(=O)C1=CCC(NC(=O)C2(C)CN(c3cc(F)cc(Cl)c3)C(=O)O2)C1 (stereo not shown) [Compound 143]
45: Plant response rating, Sedge, Umbrella (0 to 100 scale, 0 is no effect and 100 is complete control) [27]
10: Plant response rating, Rice (0 to 100 scale, 0 is no effect and 100 is complete control) (rice (Oryza sativa))
60: Plant response rating, Ducksalad (0 to 100 scale, 0 is no effect and 100 is complete control) [26]
0: Barnyardgrass plant response rating ([1]; 16 g ai/ha, 0 to 100 scale) | Barnyardgrass plant response rating (0-100) [1, 28] | Blackgrass plant response rating ([2]; 16 g ai/ha, 0 to 100 scale) | Blackgrass plant response rating (0-100) [2, 28] | Corn plant response rating (corn (Zea mays) [3]; 16 g ai/ha, 0 to 100 scale) | Corn plant response rating (0-100) (corn (Zea mays) [3]; [28]) | Foxtail, Green plant response rating ([4]; 16 g ai/ha, 0 to 100 scale) | Foxtail, Green plant response rating (0-100) [4, 28] | Kochia plant response rating (kochia (Bassia scoparia) [5]; 16 g ai/ha, 0 to 100 scale) | Kochia plant response rating (0-100) (kochia (Bassia scoparia) [5]; [28]) | Oat, Wild plant response rating ([6]; 16 g ai/ha, 0 to 100 scale) | Oat, Wild plant response rating (0-100) [6, 28] | Pigweed, Palmer plant response rating ([7]; 16 g ai/ha, 0 to 100 scale) | Pigweed, Palmer plant response rating (0-100) [7, 28] | Ragweed plant response rating ([8]; 16 g ai/ha, 0 to 100 scale) | Ragweed plant response rating (0-100) [8, 28] | Ryegrass, Italian plant response rating ([9]; 16 g ai/ha, 0 to 100 scale) | Ryegrass, Italian plant response rating (0-100) [9, 28] | Soybean plant response rating (soybean (Glycine max) [10]; 16 g ai/ha, 0 to 100 scale) | Soybean plant response rating (0-100) (soybean (Glycine max) [10]; [28]) | Wheat plant response rating ([11]; 16 g ai/ha, 0 to 100 scale) | Wheat plant response rating (0-100) [11, 28] | Barnyardgrass plant response rating (0-100) [12, 29] | Barnyardgrass plant response rating (0 to 100 scale) [12, 30] | Blackgrass plant response rating (0-100) [13, 29] | Blackgrass plant response rating (0 to 100 scale) [13, 30] | Corn plant response rating (0-100) (corn (Zea mays) [14]; [29]) | Corn plant response rating (0 to 100 scale) (corn (Zea mays) [14]; [30]) | Galium plant response rating (0-100) [15, 29] | Galium plant response rating (0 to 100 scale) [15, 30] | Foxtail, Green plant response rating (0-100) [16, 29] | Foxtail, Green plant response rating (0 to 100 scale) [16, 30] | Horseweed plant response rating (0-100) [17, 29] | Horseweed plant response rating (0 to 100 scale) [17, 30] | Kochia plant response rating (0-100) (kochia (Bassia scoparia) [18]; [29]) | Kochia plant response rating (0 to 100 scale) (kochia (Bassia scoparia) [18]; [30]) | Oat, Wild plant response rating (0-100) [19, 29] | Oat, Wild plant response rating (0 to 100 scale) [19, 30] | Pigweed, Palmer plant response rating (0-100) [20, 29] | Pigweed, Palmer plant response rating (0 to 100 scale) [20, 30] | Ragweed plant response rating (0-100) [21, 29] | Ragweed plant response rating (0 to 100 scale) [21, 30] | Ryegrass, Italian plant response rating (0-100) [22, 29] | Ryegrass, Italian plant response rating (0 to 100 scale) [22, 30] | Soybean plant response rating (0-100) (soybean (Glycine max) [23]; [29]) | Soybean plant response rating (0 to 100 scale) (soybean (Glycine max) [23]; [30]) | Wheat plant response rating (0-100) [24, 29] | Wheat plant response rating (0 to 100 scale) [24, 30]
40: Plant response rating, Barnyardgrass (0 to 100 scale, 0 is no effect and 100 is complete control) [25]

Source: patent US20260285850A1, “SUBSTITUTED OXAZOLIDINONES AND IMIDAZOLINONES AS HERBICIDES” (FMC CORPORATION, priority 2023, published 2026)
